Patent publication US11352340B2, “Pyridine and pyridimine compounds as PI3K-gamma inhibitors” (Incyte Corporation, priority 2016, dated 2022)
Where a name gives a salt, the structure may show the parent alone.

Legend:
[1] = biological target: PI3Kδ (p110δ/p85α) Recombinant Human Protein (Homo sapiens (Human), UniProt O00329); assay: PI3Kδ Scintillation Proximity Assay; type: biochemical; conditions: read-out: PI3K-delta SPA IC50
Method in brief: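 Radiometric read-out: 33P-labelled PIP3 product captured on WGA SPA beads and counted, with IC50 fitted from percent activity relative to DMSO control. Enzyme (3.4 nM) was incubated 120 min at room temperature with 20 μM PIP2 and 2 μM ATP at pH 6.7, 2% DMSO.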

[2] = system: Phosphorylated Ribosomal Protein S6 (RPS6) in THP-1 cells; assay: THP-1 RPS6 ELISA Assay; type: cell-based, Human; conditions: Homo sapiens, MCP-1 stimulated, phospho-RPS6 ELISA, read-out: THP p-RPS6 ELISA IC50
Procedure: Example A. THP-1 RPS6 ELISA Assay
To measure the Phosphorylated Ribosomal Protein S6 (RPS6) in cell lysates, THP-1 cells (Human Acute Monocytic Leukemia) are purchased from ATCC (Manassas, Va.) and maintained in RPMI with 10% FBS (Gibco/Life Technologies, Carlsbad, Calif.). For the assay, THP-1 cells are serum starved overnight in RPMI, then plated in RPMI (2×10^5 cells/well in 90 μL) into 96-well flat-bottom tissue culture treated plates (Corning, Corning, N.Y.), in the presence or absence of a concentration range of test compounds. Covered plates are incubated for 2 hours at 37° C., 5% CO2 then treated with or without 10 nM MCP-1 (MYBioSource, San Diego, Calif.) for 15 minutes at 37° C., 5% CO2. Plates are centrifuged at 1600 RPM and supernatants are removed. Cells are lysed in Lysis Buffer (Cell Signaling, Danvers, Mass.) with Protease Inhibitor (Calbiochem/EMD, Germany), PMSF (Sigma, St Louis Mo.), HALTS (Thermo Fisher, Rockford, Ill.) for 30 min on wet ice. Cell lysates are frozen at −80° C. before testing. The lysates are tested in the Human/Mouse/Rat Phospho-RPS6 ELISA (R&D Systems, Inc. Minn, Minn.). The plate is measured using a microplate reader (SpectraMax M5—Molecular Devices, LLC Sunnyvale, Calif.) set to 450 nm with a wavelength correction of 540. IC50 determination is performed by fitting the curve of inhibitor percent inhibition versus the log of the inhibitor concentration using the GraphPad Prism 5.0 software.

[3] = biological target: PI3Kγ (p110γ) Recombinant Human Protein (Homo sapiens (Human), UniProt P48736); assay: PI3K-γ Scintillation Proximity Assay; type: biochemical; conditions: read-out: PI3K-gamma SPA IC50
Sequence of PI3Kγ (p110γ) Recombinant Human Protein (P48736 whole entry): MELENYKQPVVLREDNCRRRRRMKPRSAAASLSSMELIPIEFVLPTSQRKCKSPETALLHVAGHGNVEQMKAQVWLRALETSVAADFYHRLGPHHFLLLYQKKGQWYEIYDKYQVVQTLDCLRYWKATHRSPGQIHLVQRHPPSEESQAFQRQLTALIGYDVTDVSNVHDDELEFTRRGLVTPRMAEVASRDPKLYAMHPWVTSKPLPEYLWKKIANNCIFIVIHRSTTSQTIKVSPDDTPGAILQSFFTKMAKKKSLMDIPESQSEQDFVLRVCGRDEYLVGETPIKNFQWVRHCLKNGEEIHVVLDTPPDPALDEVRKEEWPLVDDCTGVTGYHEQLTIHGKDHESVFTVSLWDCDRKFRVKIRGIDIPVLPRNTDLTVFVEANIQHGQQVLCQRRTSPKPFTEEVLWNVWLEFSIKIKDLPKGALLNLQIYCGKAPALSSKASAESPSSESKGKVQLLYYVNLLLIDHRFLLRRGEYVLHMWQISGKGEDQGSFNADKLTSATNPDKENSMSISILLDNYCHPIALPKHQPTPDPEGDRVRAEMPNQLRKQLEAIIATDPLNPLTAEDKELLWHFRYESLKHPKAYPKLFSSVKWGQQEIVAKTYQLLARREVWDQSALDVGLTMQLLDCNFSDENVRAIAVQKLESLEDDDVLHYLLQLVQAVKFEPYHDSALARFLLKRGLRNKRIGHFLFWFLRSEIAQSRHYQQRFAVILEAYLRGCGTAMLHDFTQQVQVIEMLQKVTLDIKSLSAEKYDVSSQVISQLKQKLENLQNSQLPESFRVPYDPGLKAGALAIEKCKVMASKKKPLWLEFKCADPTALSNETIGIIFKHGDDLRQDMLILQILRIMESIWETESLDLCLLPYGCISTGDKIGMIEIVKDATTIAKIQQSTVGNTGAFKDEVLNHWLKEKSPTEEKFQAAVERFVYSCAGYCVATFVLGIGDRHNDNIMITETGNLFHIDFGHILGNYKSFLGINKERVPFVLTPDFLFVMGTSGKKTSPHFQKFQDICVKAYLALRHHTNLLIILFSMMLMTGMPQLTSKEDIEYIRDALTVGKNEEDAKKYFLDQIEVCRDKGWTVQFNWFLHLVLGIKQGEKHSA
Method in brief: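 Radiometric SPA: reaction at room temperature for 120 min using 2 μM ATP with [γ-33P]ATP tracer, 20 μM PIP2 substrate and 13 nM human PI3Kγ (MOPS pH 6.7, MgCl2, DTT, CHAPS; 2% DMSO). EDTA quench with WGA beads, scintillation count, and IC50 fit of percent-of-control activity.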

Sequence of PI3Kδ (p110δ/p85α) Recombinant Human Protein (O00329 whole entry): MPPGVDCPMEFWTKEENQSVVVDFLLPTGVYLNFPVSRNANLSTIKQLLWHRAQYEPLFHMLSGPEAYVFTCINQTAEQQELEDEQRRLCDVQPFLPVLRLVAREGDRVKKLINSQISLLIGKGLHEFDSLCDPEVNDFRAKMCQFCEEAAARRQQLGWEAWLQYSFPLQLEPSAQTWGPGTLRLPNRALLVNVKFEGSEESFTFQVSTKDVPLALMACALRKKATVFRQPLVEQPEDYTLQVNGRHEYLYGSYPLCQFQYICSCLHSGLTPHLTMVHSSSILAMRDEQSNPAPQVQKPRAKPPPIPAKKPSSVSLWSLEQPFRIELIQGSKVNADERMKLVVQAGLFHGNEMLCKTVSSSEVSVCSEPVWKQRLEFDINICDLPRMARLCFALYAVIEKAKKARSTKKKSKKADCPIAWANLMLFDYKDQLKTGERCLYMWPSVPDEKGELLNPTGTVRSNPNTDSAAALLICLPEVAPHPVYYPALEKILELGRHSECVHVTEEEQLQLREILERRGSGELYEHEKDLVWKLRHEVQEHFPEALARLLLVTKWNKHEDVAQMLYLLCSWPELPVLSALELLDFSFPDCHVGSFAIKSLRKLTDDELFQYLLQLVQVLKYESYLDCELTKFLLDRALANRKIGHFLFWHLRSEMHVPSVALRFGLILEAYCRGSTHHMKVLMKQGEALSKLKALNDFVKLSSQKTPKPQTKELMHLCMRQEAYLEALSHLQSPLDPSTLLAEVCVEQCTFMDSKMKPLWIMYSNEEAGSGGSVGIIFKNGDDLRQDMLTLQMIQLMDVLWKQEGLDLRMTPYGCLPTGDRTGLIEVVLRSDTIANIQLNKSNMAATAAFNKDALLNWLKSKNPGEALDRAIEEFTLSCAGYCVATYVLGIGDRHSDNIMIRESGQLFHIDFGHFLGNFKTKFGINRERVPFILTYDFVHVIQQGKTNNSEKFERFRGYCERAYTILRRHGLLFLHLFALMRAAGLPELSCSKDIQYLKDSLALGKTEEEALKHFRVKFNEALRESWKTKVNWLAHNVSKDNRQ
Sequence of PI3Kδ (p110δ/p85α) Recombinant Human Protein (P27986 whole entry partner): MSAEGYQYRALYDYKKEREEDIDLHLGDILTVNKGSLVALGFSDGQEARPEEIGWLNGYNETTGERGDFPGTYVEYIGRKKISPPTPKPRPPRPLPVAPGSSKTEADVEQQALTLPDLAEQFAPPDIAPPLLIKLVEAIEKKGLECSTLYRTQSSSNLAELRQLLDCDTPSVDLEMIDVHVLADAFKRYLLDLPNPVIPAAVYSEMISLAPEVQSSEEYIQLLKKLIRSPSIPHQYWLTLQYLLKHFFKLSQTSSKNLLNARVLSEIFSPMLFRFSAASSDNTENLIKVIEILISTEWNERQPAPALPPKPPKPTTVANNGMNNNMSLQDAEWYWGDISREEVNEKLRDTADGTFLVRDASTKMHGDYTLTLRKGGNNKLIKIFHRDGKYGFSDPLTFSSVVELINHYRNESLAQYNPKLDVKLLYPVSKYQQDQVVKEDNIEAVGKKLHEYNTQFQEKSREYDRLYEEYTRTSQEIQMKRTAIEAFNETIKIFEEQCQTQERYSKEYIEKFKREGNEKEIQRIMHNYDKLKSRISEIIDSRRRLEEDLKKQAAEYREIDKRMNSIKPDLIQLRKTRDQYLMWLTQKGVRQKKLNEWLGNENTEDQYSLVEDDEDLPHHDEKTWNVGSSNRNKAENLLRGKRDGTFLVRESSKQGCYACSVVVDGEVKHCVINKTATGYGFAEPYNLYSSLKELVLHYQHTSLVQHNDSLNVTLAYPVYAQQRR

Structure (SMILES)	IC50 [1]	IC50 [2]	IC50 [3]
Cc1nc(-c2cc(-c3cncc(NCC4CCOC4)c3)ccn2)[nH]c1C (racemic) [Example 145B, 2′-(4,5-Dimethyl-1H-imidazol-2-yl)-N-(tetrahydrofuran-3-ylmethyl)-3,4′-bipyridin-5-amine]	≤ 50 nM	≤ 300 nM	≤ 50 nM
Cc1nc(-c2cc(-c3cncc(NC(C)c4ccccc4)c3)ccn2)[nH]c1C (racemic) [Example 145C, 2′-(4,5-Dimethyl-1H-imidazol-2-yl)-N-(1-phenylethyl)-3,4′-bipyridin-5-amine trifluoroacetate salt]	≤ 50 nM	≤ 300 nM	≤ 50 nM
Cc1nc(-c2cc(-c3cncc(C(=O)N4CCCC(O)C4)c3)ccn2)[nH]c1C (racemic) [Example 154, (2′-(4,5-Dimethyl-1H-imidazol-2-yl)-3,4′-bipyridin-5-yl)(3-hydroxypiperidin-1-yl)methanone]	≤ 100 nM	300 to 1000 nM	≤ 50 nM
Cc1nc(-c2cc(-c3cncc(C(=O)N4CCC(CCO)C4)c3)ccn2)[nH]c1C (racemic) [Example 169, (2′-(4,5-Dimethyl-1H-imidazol-2-yl)-3,4′-bipyridin-5-yl)(3-(2-hydroxyethyl)pyrrolidin-1-yl)methanone]	≤ 50 nM	1000 to 5000 nM	≤ 100 nM
COC1CCN(C(=O)c2cncc(-c3ccnc(-c4nc(C)c(C)[nH]4)c3)c2)C1 (racemic) [Example 174, 2′-(4,5-Dimethyl-1H-imidazol-2-yl)-5-[(3-methoxypyrrolidin-1-yl)carbonyl]-3,4′-bipyridine trifluoroacetate salt]	≤ 50 nM	≤ 300 nM	≤ 50 nM
Cc1[nH]c(-c2cc(-c3cncc(N4CCOCC4)c3)ccn2)nc1C(=O)N(C)C(C)C [Example 259, N-Isopropyl-N,5-dimethyl-2-(5-morpholin-4-yl-3,4′-bipyridin-2′-yl)-1H-imidazole-4-carboxamide]	≤ 500 nM	–	≤ 500 nM
Cc1[nH]c(-c2cc(-c3cncc(N4CCOCC4)c3)ccn2)nc1C(=O)N[C@@H]1CCN(Cc2ccccc2)C1 [Example 280, N-[(3R)-1-Benzylpyrrolidin-3-yl]-5-methyl-2-(5-morpholin-4-yl-3,4′-bipyridin-2′-yl)-1H-imidazole-4-carboxamide trifluoroacetate salt]	≤ 50 nM	–	≤ 500 nM
CC(=O)N1CCC(c2c[nH]c(-c3cc(-c4cnn(Cc5ccc(Cl)cc5)c4)ccn3)n2)C1 (stereo not shown) [Example 301, 2-[4-(1-Acetylpyrrolidin-3-yl)-1H-imidazol-2-yl]-4-[1-(4-chlorobenzyl)-1H-pyrazol-4-yl]pyridine trifluoroacetate salt]	> 500 nM	–	≤ 500 nM
O=S(=O)(c1ccccc1)N1CCC(c2c[nH]c(-c3cc(-c4cnn(Cc5ccc(Cl)cc5)c4)ccn3)n2)C1 (stereo not shown) [Example 302, 4-[1-(4-Chlorobenzyl)-1H-pyrazol-4-yl]-2-{4-[1-(phenylsulfonyl)pyrrolichn-3-yl]-1H-imidazol-2-yl}pyridine trifluoroacetate salt]	≤ 500 nM	–	≤ 500 nM
CC(=O)N1CCC(c2c[nH]c(-c3cc(-c4cnn(Cc5ccc(Cl)cc5)c4)ccn3)n2)C1 (stereo not drawn) [Example 303, 2-[4-(1-Acetylpyrrolidin-3-yl)-1H-imidazol-2-yl]-4-[l-(4-chlorobenzyl)-1H-pyrazol-4-yl]pyridine trifluoroacetate salt]	> 500 nM	–	≤ 500 nM
O=S(=O)(c1ccccc1)N1CCC(c2c[nH]c(-c3cc(-c4cnn(Cc5ccc(Cl)cc5)c4)ccn3)n2)C1 (stereo not shown) [Example 305, 4-[1-(4-Chlorobenzyl)-1H-pyrazol-4-yl]-2-{4-[1-(phenylsulfonyl)pyrrolidin-3-yl]-1H-imidazol-2-yl}pyridine trifluoroacetate salt]	≤ 500 nM	–	≤ 500 nM
COc1ccccc1Nc1nc(-c2cc(-c3cncc(N4CCOCC4)c3)ccn2)[nH]c1C [Example 307, N-(2-Methoxyphenyl)-5-methyl-2-(5-morpholin-4-yl-3,4′-bipyridin-2′-yl)-1H-imidazol-4-amine Trifluoroacetate Salt]	≤ 50 nM	–	≤ 500 nM
Cc1[nH]c(-c2cc(-c3cncc(N4CCOCC4)c3)ccn2)nc1Nc1ccnnc1 [Example 308, N-[5-Methyl-2-(5-morpholin-4-yl-3,4′-bipyridin-2′-yl)-1H-imidazol-4-yl]pyridazin-4-amine trifluoroacetate salt]	≤ 50 nM	–	≤ 500 nM

Now from value to compound:

IC50 [1]	IC50 [2]	IC50 [3]	Structure (SMILES)
≤ 500 nM	–	≤ 500 nM	CCN(C)C(=O)c1nc(-c2cc(-c3cncc(N4CCOCC4)c3)ccn2)[nH]c1C [Example 260, N-Ethyl-N,5-dimethyl-2-(5-morpholin-4-yl-3,4′-bipyridin-2′-yl)-1H-imidazole-4-carboxamide]
≤ 50 nM	–	≤ 100 nM	COC1CN(C(=O)c2nc(-c3cc(-c4cncc(N5CCOCC5)c4)ccn3)[nH]c2C)C1 [Example 263, 2′-{4-[(3-Methoxyazetidin-1-yl)carbonyl]-5-methyl-1H-imidazol-2-yl}-5-morpholin-4-yl-3,4′-bipyridine]
≤ 100 nM	–	> 500 nM	Cc1[nH]c(-c2cc(-c3cncc(N4CCOCC4)c3)ccn2)nc1CNC1CCOCC1 [Example 283, N-{[5-Methyl-2-(5-morpholin-4-yl-3,4′-bipyridin-2′-yl)-1H-imidazol-4-yl]methyl}tetrahydro-2H-pyran-4-amine]
≤ 100 nM	–	> 500 nM	Cc1[nH]c(-c2cc(-c3cncc(N4CCOCC4)c3)ccn2)nc1CNC1CCCC1 [Example 284, N-{[5-Methyl-2-(5-morpholin-4-yl-3,4′-bipyridin-2′-yl)-1H-imidazol-4-yl]methyl}cyclopentanamine]
≤ 500 nM	–	> 500 nM	Cc1[nH]c(-c2cc(-c3cncc(N4CCOCC4)c3)ccn2)nc1CNC(C)C [Example 285, N-{[5-Methyl-2-(5-morpholin-4-yl-3,4′-bipyridin-2′-yl)-1H-imidazol-4-yl]methyl}propan-2-amine]
≤ 500 nM	–	> 500 nM	Cc1[nH]c(-c2cc(-c3cncc(N4CCOCC4)c3)ccn2)nc1CN[C@H]1CCOC1 [Example 286, (3S)-N-{[5-Methyl-2-(5-morpholin-4-yl-3,4′-bipyridin-2′-yl)-1H-imidazol-4-yl]methyl}tetrahydrofuran-3-amine]
≤ 500 nM	–	> 500 nM	Cc1[nH]c(-c2cc(-c3cncc(N4CCOCC4)c3)ccn2)nc1CN[C@@H]1CCOC1 [Example 287, (3R)-N-{[5-Methyl-2-(5-morpholin-4-yl-3,4′-bipyridin-2′-yl)-1H-imidazol-4-yl]methyl}tetrahydrofuran-3-amine]
≤ 500 nM	–	> 500 nM	CNCc1nc(-c2cc(-c3cncc(N4CCOCC4)c3)ccn2)[nH]c1C [Example 288, N-Methyl-1-[5-methyl-2-(5-morpholin-4-yl-3,4′-bipyridin-2′-yl)-1H-imidazol-4-yl]methanamine]
≤ 50 nM	–	> 500 nM	Cc1[nH]c(-c2cc(-c3cncc(N4CCOCC4)c3)ccn2)nc1CN(C)C [Example 289, N,N-Dimethyl-1-[5-methyl-2-(5-morpholin-4-yl-3,4′-bipyridin-2′-yl)-1H-imidazol-4-yl]methanamine]
≤ 100 nM	–	> 500 nM	COCCNCc1nc(-c2cc(-c3cncc(N4CCOCC4)c3)ccn2)[nH]c1C [Example 290, 2-Methoxy-N-{[5-methyl-2-(5-morpholin-4-yl-3,4′-bipyridin-2′-yl)-1H-imidazol-4-yl]methyl}ethanamine]
≤ 50 nM	–	> 500 nM	COCCCNCc1nc(-c2cc(-c3cncc(N4CCOCC4)c3)ccn2)[nH]c1C [Example 291, 3-Methoxy-N-{[5-methyl-2-(5-morpholin-4-yl-3,4′-bipyridin-2′-yl)-1H-imidazol-4-yl]methyl}propan-1-amine]
≤ 100 nM	–	≤ 500 nM	Cc1[nH]c(-c2cc(-c3cncc(N4CCOCC4)c3)ccn2)nc1CN1CCOCC1 [Example 292, 2′-[5-Methyl-4-(morpholin-4-ylmethyl)-1H-imidazol-2-yl]-5-morpholin-4-yl-3,4′-bipyridine]
